Earlier results on 12 compounds are cited in patent US20230255891A1, “Highly Compactable and Durable Direct Compression Excipients and Excipient Systems” (SPI Pharma, Inc., priority 2009, published 2023).

The conditions of data set [1]: in water at 25.
For data set [2] the following is noted: for 80° C. Solubility Kilos/100 Kilo solution: spray liquid temperature; for solubility in water: at 80 C in solution.

Turning to `OC[C@@H](O)[C@@H](O)CO` [Erythritol], the “Solubility At 25 (g/100 g H2O)” value in data set [1] was 61 g/100 g H2O.

As to `O=C(CO)[C@@H](O)[C@H](O)[C@H](O)CO` [Fructose], the “Solubility At 25 (g/100 g H2O)” value in data set [1] was 400 g/100 g H2O.

With `OCC(O)CO` [Glycerin], in data set [1], the “Solubility At 25 (g/100 g H2O)” value is recorded as “Soluble”.

For the compound `OC[C@@H](O)[C@@H](O[C@@H]1O[C@H](CO)[C@H](O)[C@H](O)[C@H]1O)[C@H](O)[C@@H](O)CO` [Lactitol Monohydrate], in data set [1], the “Solubility At 25 (g/100 g H2O)” value is reported as 140 g/100 g H2O.

In the case of `OC[C@@H](O)[C@@H](O[C@@H]1O[C@H](CO)[C@H](O)[C@H](O)[C@H]1O)[C@H](O)[C@@H](O)CO` [Lactitol], the “80° C. Solubility Kilos/100 Kilo solution” value in data set [2] is recorded as 82 Kilos/100 Kilo solution.

For `OC[C@@H](O)[C@@H](O[C@H]1O[C@@H](CO)[C@@H](O)[C@@H](O)[C@H]1O)[C@H](O)[C@@H](O)CO` [Maltitol], the “Solubility At 25 (g/100 g H2O)” value in data set [1] is recorded as 175 g/100 g H2O. In data set [2], the “80° C. Solubility Kilos/100 Kilo solution” value is recorded as 80.5 Kilos/100 Kilo solution and the solubility in water result is “about 80%”.

Regarding `OC[C@@H](O)[C@@H](O)[C@H](O)[C@H](O)CO` [Mannitol], the “Solubility At 25 (g/100 g H2O)” value in data set [1] is given as 22 g/100 g H2O. Also, in data set [2], the “80° C. Solubility Kilos/100 Kilo solution” value was 47.3 Kilos/100 Kilo solution and the solubility in water result is recorded as “about 47%”.

For `OC[C@@H](O)[C@@H](O)[C@H](O)[C@@H](O)CO` [Sorbitol], in data set [1], the “Solubility At 25 (g/100 g H2O)” value is on record as 235 g/100 g H2O. Further, in data set [2], the “80° C. Solubility Kilos/100 Kilo solution” value was 92 Kilos/100 Kilo solution and the solubility in water entry is listed as “about 92%”.

With `OC[C@H]1O[C@@](CO)(O[C@H]2O[C@H](CO)[C@@H](O)[C@H](O)[C@H]2O)[C@@H](O)[C@@H]1O` [Sucrose], in data set [1], the “Solubility At 25 (g/100 g H2O)” value was 185 g/100 g H2O.

On to `OC[C@@H](O)[C@H](O)[C@@H](O)CO` [Xylitol], for which the “Solubility At 25 (g/100 g H2O)” value in data set [1] is listed as 200 g/100 g H2O.

Anhydrous Isomalt: the “Solubility At 25 (g/100 g H2O)” value in data set [1] was 39 g/100 g H2O.

On to Isomalt, for which the “80° C. Solubility Kilos/100 Kilo solution” value in data set [2] is 71 Kilos/100 Kilo solution.
